Numbered stars: 1 amine (or outer) side, 2 acyl side, 3 side chain; on linkers, the order of the positions; unused ones are H or OH. Square brackets hold non-standard residues; d marks the D form. Peptide text beside a SMILES is read from it. * marks the point of attachment. NMeI = CC[CH](C)[CH](NC)C(=O)O; X2 = CCC(C)C(O[*:1])C(=O)[*:2]; NMeV = CN[CH](C(=O)O)C(C)C; X1 = C#CCCCC(O)C(C)C(=O)*
Experiments:
MDA-MB-231 cells = assay: MTT cytotoxicity assay in MDA-MB-231 (TNBC) cells; type: cell-based, human; settings: for cytotoxicity / effect on viability in words: TNBC (MDA-MB-231) cells, MTT
Experimental: (§1) The human triple-negative breast cancer cell line MDA-MB-231 was obtained from ATCC and was maintained in DMEM:F-12 (1:1) (Life Technologies, Carlsbad, CA, USA), 10% Fetal Bovine Serum (Atlanta Biologicals, Atlanta, GA, USA), and 1% Penicillin/Streptomycin (Sigma, St. Louis, MO, USA). The estrogen-positive MCF-7 cell line was also obtained from ATCC and was maintained in 1640 RPMI media (Life technologies), 10% FBS, and 1% Penicillin/Streptomycin. HEK-293 cells were also obtained from ATCC and maintained in Dulbecco’s Modification of Eagle’s Medium (DMEM), 10% Fetal Bovine Serum (FBS), and 1% Penicillin/Streptomycin (Pen/Strep).
(§2) Two rounds of toxicity experimentation were completed. First, MDA-MB-231 and MCF-7 cells were plated at a density of 5 × 10^3 cells per well in a 96-well plate. Cells were allowed to attach overnight. The cells were treated with depsipeptides or vehicle for 72 h with 5% FBS stimulation. DMSO was used as a vehicle control. After treatment, 10 μ L MTT (Sigma) was added to each well (0.5 mg/mL final concentration), and the plates were incubated for 3 h (5% CO2 and 37 °C). The medium was removed and the MTT-formazan crystals were dissolved with 100 μ L DMSO per well. The absorbance was measured at 570 nm with a VICTOR^3 1420 multilabel counter (Perkin Elmer, Springfield, IL, USA). Three wells were analyzed for each condition, and wells containing medium-MTT only (no cells) and medium-MTT (DMSO + 5% FBS) were used as controls. Results were normalized to the DMSO + 5% FBS group.

MCF-7 cells = assay: MTT cytotoxicity assay in MCF-7 (estrogen positive) cells; type: cell-based, human; settings: ER-positive MCF-7 cells, 72 h, listed as Veraguamide O
Experimental: as §1
as §2, with “The medium was removed and the MTT-formazan crystals were dissolved with 100 μ L DMSO per well.” left out, “Results were normalized to the DMSO + 5% FBS group.” left out

## C#CCCCC(O)C(C)C(=O)NC(C(=O)N(C)C(C(=O)OC(C(=O)N1CCCC1C(=O)N(C)C(C(=O)O)C(C)CC)C(C)CC)C(C)C)C(C)CC (stereo not drawn) [Veraguamide O (1)] (X1-I[NMeV][X2]P[NMeI]-OH; configuration not given here)
MDA-MB-231 cells; MDA-MB-231 (TNBC), 10 μM, microscopy
  cell death observed microscopically: appeared to induce cell death
MDA-MB-231 cells; MDA-MB-231, MTT, 72 h, 0.14 µM, % of DMSO + 5% FBS control
  viability: 86%
MDA-MB-231 cells; MDA-MB-231 compared to MCF-7, MTT
  selectivity for TNBC over estrogen-positive cells, in words: selective inhibitory effects against TNBC (MDA-MB-231) cells compared to estrogen-positive (MCF-7) breast cancer cells
MDA-MB-231 cells; 72 h
  cytotoxicity / effect on viability in words: decreased viability in MDA-MB-231 cells in a concentration-dependent manner
MDA-MB-231 cells; 72 h, listed as veraguamide O
  cytotoxicity / effect on viability in words: similar, albeit minor, levels of toxicity
MCF-7 cells
  cytotoxicity / effect on viability in words: no cytotoxicity
